Data reported in patent publication US6586478B2, “Methods and compositions for improving sleep” (Cellegy Canada, priority 2000, dated 2003).

What was measured:
[1] = test system: sleep disorders including PLMS; experiment: Example 1, Subject 1: person with sleep disorders including PLMS; format: in vivo, human; settings: Subject 1, history before the GTN patch
Procedure: The subject was a person with a history of sleep disorders including PLMS for at least 4 years. Over this period the subject had five visits to a sleep laboratory, which confirmed their diagnosis of PLMS, and through which various treatments were devised. These included drug therapies with PAXIL/WELLBUTRIN, CLOMIPRAMINE, IMOVANE, DESIPPAMINE, ZOLOFT, TEMAZEPAM, TRYPTAN, and FLUVOXAMINE.
At this point, the subject was administered a 1.65 cm^2 GTN patch as described above in reference to Table 4. The patch was applied just before retiring at night. This was repeated for three consecutive nights. […] On the fourth night, the subject applied a 1.1 cm^2 GTN patch, and on the fifth night, a 0.825 cm^2 GTN patch.

[2] = Plasma levels of nitroglycerin delivered from transdermal patches; format: in vivo
Procedure: (§1) 3M MINITRAN transdermal nitroglycerin patches of 10 cm^2 and 20 cm^2 areas deliver plasma levels of 102 pg/mL and between 129 pg/mL and 310 pg/mL, respectively. The 3.3 cm^2 patch, with a total loading of 9 mg of nitroglycerin in each patch, has a mean rate of drug delivery of about […]. The two smaller patches (1.65 cm^2 and 0.825 cm^2) used in the studies described herein had areas of one half and one fourth the 3.33 cm^2 patch. Based on the ratios of patch surface area and assuming linearity in the rates of drug delivery, the estimated rates of delivery and extrapolated values of plasma levels of nitroglycerin for the three low or microdose patches are given in Table 1.

[3] = Rate of drug delivery (release) from transdermal nitroglycerin patches; settings: after 8 hours, 0.83 cm^2 patch
Procedure: as §1
Nitroglycerin for the treatment of RLS, PLMS and sleep symptoms was provided in single dose transdermal patches packaged in individual foil pouches. Each single dose transdermal patch has a surface area of 0.83 cm^2, contains 2.25 mg of nitroglycerin, and releases the nitroglycerin at a rate of 0.025 mg/hour (0.75 mg/cm^2/24 hours). After 8 hours 85% of the nitroglycerin remains entrained in the adhesive substrate of the transdermal patch.

Row | Structure (SMILES) | success of earlier drug therapies in treating the symptoms of the sleep disorder [1] | other results
1 | CN[C@H]1CC[C@@H](c2ccc(Cl)c(Cl)c2)c2ccccc21 [ZOLOFT] | None of the drug therapies were successful | –
2 | O=[N+]([O-])OCC(CO[N+](=O)[O-])O[N+](=O)[O-] [Nitroglycerin, nitroglycerin] | – | Plasma Level ([2]; 0.825 cm^2 patch, extrapolated from larger-size patches assuming linearity): 9^3 pg/mL; Plasma Level ([2]; 1.65 cm^2 patch, extrapolated from larger-size patches assuming linearity): 17^3 pg/mL; Plasma Level ([2]; 3.33 cm^2 patch, extrapolated from larger-size patches assuming linearity): 34^3 pg/mL; Plasma Level ([2]; 10 cm^2 patch): 102^1 pg/mL; nitroglycerin remaining entrained in the adhesive substrate of the patch [3]: 85%
3 | CN1C(=O)C(O)N=C(c2ccccc2)c2cc(Cl)ccc21 (centres unmarked) [TEMAZEPAM, temazepam] | None of the drug therapies were successful | –
4 | COCCCC/C(=N\OCCN)c1ccc(C(F)(F)F)cc1 [FLUVOXAMINE] | None of the drug therapies were successful | –
5 | CN(C)CCCN1c2ccccc2CCc2ccc(Cl)cc21 [CLOMIPRAMINE] | None of the drug therapies were successful | –
6 | CNCCCN1c2ccccc2CCc2ccccc21 [DESIPPAMINE] | None of the drug therapies were successful | –
7 | CN1CCN(C(=O)OC2c3nccnc3C(=O)N2c2ccc(Cl)cn2)CC1 (centres unmarked) [IMOVANE] | None of the drug therapies were successful | –
